# Measurements: ChEMBL document CHEMBL5036347, “Design of the naphthyl-diarylpyrimidines as potent non-nucleoside reverse transcriptase inhibitors (NNRTIs) via structure-based extension into the entrance channel” (Eur J Med Chem, 2021)
# Experiments:
# [1] = Resistance fold, ratio of EC50 for HIV1 harboring reverse transcriptase Y181C mutant […] to EC50 for wild type HIV1 […]; format: functional
# [2] = Resistance fold, ratio of EC50 for HIV1 harboring reverse transcriptase E138K mutant […] to EC50 for wild type HIV1 […]; format: functional
# [3] = tested on: Human immunodeficiency virus 2; test: Anti-HIV activity against HIV2 ROD infected in human MT4 cells assessed as reduction in virus-induced cytopathic effect incubated for 5 days by MTT assay; format: functional, organism-based; details: Human immunodeficiency virus 2, ROD, MT4, 120 h
# [4] = Resistance fold, ratio of EC50 for HIV1 harboring reverse transcriptase K103N/Y181C double mutant […] to EC50 for wild type HIV1 […]; format: functional
# [5] = tested on: Human immunodeficiency virus 1; test: Antiviral activity against HIV1 harboring reverse transcriptase K103N mutant infected in human MT4 cells assessed as protection against virus-induced cytopathic effect incubated for 5 days by MTT assay; format: functional, organism-based; details: Human immunodeficiency virus 1, MT4, 120 h
# [6] = tested on: Human immunodeficiency virus 1; test: Antiviral activity against HIV1 harboring reverse transcriptase K103N/Y181C double mutant infected in human MT4 cells assessed as protection against virus-induced cytopathic effect incubated for 5 days by MTT assay; format: functional, organism-based; details: Human immunodeficiency virus 1, MT4, 120 h
# [7] = tested on: Human immunodeficiency virus 1; test: Antiviral activity against HIV1 harboring reverse transcriptase Y181C mutant infected in human MT4 cells assessed as protection against virus-induced cytopathic effect incubated for 5 days by MTT assay; format: functional, organism-based; details: Human immunodeficiency virus 1, MT4, 120 h
# [8] = tested on: Human immunodeficiency virus 1; test: Antiviral activity against HIV1 harboring reverse transcriptase Y188L mutant infected in human MT4 cells assessed as protection against virus-induced cytopathic effect incubated for 5 days by MTT assay; format: functional, organism-based; details: Human immunodeficiency virus 1, MT4, 120 h
# [9] = Resistance fold, ratio of EC50 for HIV1 harboring reverse transcriptase K103N mutant […] to EC50 for wild type HIV1 […]; format: functional
# [10] = tested on: Human immunodeficiency virus 1; test: Antiviral activity against HIV1 harboring reverse transcriptase E138K mutant infected in human MT4 cells assessed as protection against virus-induced cytopathic effect incubated for 5 days by MTT assay; format: functional, organism-based; details: Human immunodeficiency virus 1, MT4, 120 h
# [11] = Selectivity index, ratio of CC50 for cytotoxicity against human MT4 cells to EC50 of Anti-HIV activity against HIV-1 IIIB infected in human MT4; format: toxicity, cell-based; details: read-out: Selectivity Index
# [12] = Cytotoxicity against human MT4 cells assessed as reduction in cell viability incubated for 5 days by MTT assay; format: cell-based; details: human, MT4 cells; time 5 day
# [13] = biological target: Human immunodeficiency virus type 1 reverse transcriptase (Human immunodeficiency virus 1, UniProt Q72547); test: Inhibition of wild type HIV1 reverse transcriptase using oligo(dT)16 as primer measured after 40 mins by picogreen-dye based spectrofluorimetric analysis
# [14] = tested on: Human immunodeficiency virus 1; test: Anti-HIV activity against HIV-1 IIIB infected in human MT4 cells assessed as reduction in virus-induced cytopathic effect incubated for 5 days by MTT assay; format: functional, organism-based; details: Human immunodeficiency virus 1, IIIB, MT4, 120 h
# [15] = tested on: Human immunodeficiency virus 1; test: Antiviral activity against HIV1 harboring reverse transcriptase F227L/V106A mutant infected in human MT4 cells assessed as protection against virus-induced cytopathic effect incubated for 5 days by MTT assay; format: functional, organism-based; details: Human immunodeficiency virus 1, MT4, 120 h
# [16] = tested on: Human immunodeficiency virus 1; test: Antiviral activity against HIV1 harboring reverse transcriptase L100I mutant infected in human MT4 cells assessed as protection against virus-induced cytopathic effect incubated for 5 days by MTT assay; format: functional, organism-based; details: Human immunodeficiency virus 1, MT4, 120 h
# [17] = Resistance fold, ratio of EC50 for HIV1 harboring reverse transcriptase Y188L mutant […] to EC50 for wild type HIV1 […]; format: functional
# [18] = Resistance fold, ratio of EC50 for HIV1 harboring reverse transcriptase F227L/V106A double mutant […] to EC50 for wild type HIV1 […]; format: functional
# [19] = Resistance fold, ratio of EC50 for HIV1 harboring reverse transcriptase L100I mutant […] to EC50 for wild type HIV1 […]; format: functional
Compound,Ratio EC50 [1],Ratio EC50 [2],EC50 [3] [µM],Ratio EC50 [4],EC50 [5] [µM],EC50 [6] [µM],EC50 [7] [µM],EC50 [8] [µM],Ratio EC50 [9],EC50 [10] [µM],selectivity ratio [11],CC50 at 120 h [12] [µM],IC50 [13] [µM],EC50 [14] [µM],IC50 [15] [µM],EC50 [16] [µM],Ratio EC50 [17],Ratio EC50 [18],Ratio EC50 [19],EC50 [15] [µM]
COc1cc2cc(C#N)ccc2c(OC)c1Oc1cc(N2CCOCC2)nc(Nc2ccc(C#N)cc2)n1,8,1,> 1000,634,0.13,23.9,0.29,2.34,3,0.051,> 6510,> 125,0.25,0.038,> 1000,0.52,62,>26525,14,–
CCCCCNc1cc(Oc2c(OC)cc3cc(C#N)ccc3c2OC)nc(Nc2ccc(C#N)cc2)n1,12,2,> 1000,147,0.041,6.37,0.5,50.7,1,0.096,> 5670,> 125,0.02,0.043,–,1.43,1171,>23095,33,> 1000
COc1cc2cc(C#N)ccc2c(OC)c1Oc1cc(NC2CCOCC2)nc(Nc2ccc(C#N)cc2)n1,23,3,> 1000,108,0.09,4.34,0.9,2.62,1,0.21,> 5970,> 125,0.3,0.04,–,1.51,65,>25000,–,> 1000
COc1cc2cc(C#N)ccc2c(OC)c1Oc1cc(NCC(O)CO)nc(Nc2ccc(C#N)cc2)n1 (configuration not stated),7,3,> 1000,9,0.093,0.93,0.73,1.26,1,0.28,293,29.5,0.08,0.1,–,1.04,13,31,17,3.11
CCC(CC)Nc1cc(Oc2c(OC)cc3cc(C#N)ccc3c2OC)nc(Nc2ccc(C#N)cc2)n1,10,2,> 1000,555,0.11,70.5,1.33,24.4,1,0.27,> 1930,> 125,0.6,0.13,–,5.87,192,>7862,46,> 1000
COc1cc2cc(C#N)ccc2c(OC)c1Oc1cc(NC(C)(C)C)nc(Nc2ccc(C#N)cc2)n1,12,4,> 1000,548,0.075,28.5,0.65,6.51,1,0.18,> 4830,> 125,0.31,0.052,–,1.89,125,>19231,36,> 1000
COc1cc2cc(C#N)ccc2c(OC)c1Oc1cc(NCCC2=CCCCC2)nc(Nc2ccc(C#N)cc2)n1,11,5,> 1000,90,0.18,30,4.65,148,1,0.53,> 688,> 125,0.28,0.33,–,16.6,445,494,50,164
